# Measurements from US10112944B2, “Heterocyclic compounds useful as inhibitors of TNF” (BRISTOL-MYERS SQUIBB COMPANY, priority 2015, dated 2018).
# pIC50: −log10 of the molar value.
# Biological target: TNFα (Homo sapiens (Human), UniProt P01375)
# Assay: TNF induced HEK-Blue assay
# Type: cell-based
# Conditions: HEK-Blue-CD40L cells, TNFα 0.5 ng/ml, NF-κB-driven secreted alkaline phosphatase reporter, 18 h
# Description: TNF or CD40L-Induced HEK-Blue Assay
# Test compounds serially diluted in DMSO were plated in an assay plate (Labcyte, Cat. #LP-0200) at final concentrations ranging from 0.004 μM to 25 μM. TNFα (final concentration 0.5 ng/ml) or CD40L (final concentration 30 ng/ml) in assay buffer [DMEM, 4.5 g/l glucose (Gibco, Cat. 21063-029), 10% FBS (Sigma, F4135), 1% Penicillin-Streptomycin (Gibco, Cat. 15140-122), 1% Anti-Anti (Gibco, Cat. 15240-112) and 2 mM L-glutamine (Gibco, Cat. 25030-081)] was then added to the assay plate. After a 30 minute pre-incubation at 37° C. and 5% CO2, HEK-Blue-CD40L cells (InvivoGen, Cat. Code hkb-cd40) containing a NF-κB-driven secreted alkaline phosphatase reporter gene were seeded into the assay plate at a density of 20,000 cells per well. This plate was then incubated for 18 h at 37° C. and 5% CO2. Secreted alkaline phosphatase expression was measured using QUANTI-Blue (InvivoGen, Cat. Code rep-qbl) according to manufacturer's specifications and the assay plate was read on a PerkinElmer Envision at 620 nm.
# Inhibition data for the test compound over a range of concentrations was plotted as percentage inhibition of the test compound (100%=maximum inhibition). IC50 values were determined after correcting for background [(sample read−mean of low control)/(mean of high control−mean of low control)] where by the low control is DMSO without stimulation and high control is DMSO with stimulation. The IC50 is defined as the concentration of test compound which produces 50% inhibition and was quantified using the 4 parameter logistic equation to fit the data.
# Sequence of TNFα (P01375 77-233): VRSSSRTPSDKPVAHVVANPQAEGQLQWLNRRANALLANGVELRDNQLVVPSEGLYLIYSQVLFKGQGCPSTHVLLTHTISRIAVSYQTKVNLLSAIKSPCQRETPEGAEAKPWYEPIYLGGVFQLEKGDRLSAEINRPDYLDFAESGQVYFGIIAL
row,pIC50,Structure (SMILES)
1,5.00 to 6.00,"Cc1ccc(C)c(N2CCCc3nc4ccc(-c5ccc(C(C)(C)O)cc5)cn4c32)c1 [Example 36, 2-(4-(1-(2,5-Dimethylphenyl)-1,2,3,4-tetrahydroimidazo[1,2-a:5,4-b′]dipyridin-8-yl)phenyl)propan-2-ol]"
2,> 6.00,"COc1ccc(-c2ccc3nc4c(n3c2)N(c2cc(C)ccc2C)CCC4C)cn1 (stereo not drawn) [Example 37, 1-(2,5-Dimethylphenyl)-8-(6-methoxypyridin-3-yl)-4-methyl-1,2,3,4-tetrahydroimidazo[1,2-a:5,4-b′]dipyridine]"
3,> 6.00,"COc1ccc(-c2ccc3nc4c(n3c2)N(c2ccccc2OC(F)F)CCC4C)cn1 (stereo not drawn) [Example 38, 1-(2-(Difluoromethoxy)phenyl)-8-(6-methoxypyridin-3-yl)-4-methyl-1,2,3,4-tetrahydroimidazo[1,2-a:5,4-b′]dipyridine]"
4,> 6.00,"Cc1ccc(C)c(N2CCC(C)c3nc4ccc(-c5cnn(C)c5)cn4c32)c1 (stereo not drawn) [Example 39, 1-(2,5-Dimethylphenyl)-4-methyl-8-(1-methyl-1H-pyrazol-4-yl)-1,2,3,4-tetrahydroimidazo[1,2-a:5,4-b′]dipyridine]"
5,> 6.00,"CC1CCN(c2ccccc2OC(F)F)c2c1nc1ccc(-c3cnn(C)c3)cn21 (stereo not drawn) [Example 40, 1-(2-(Difluoromethoxy)phenyl)-4-methyl-8-(1-methyl-1H-pyrazol-4-yl)-1,2,3,4-tetrahydroimidazo[1,2-a:5,4-b′]dipyridine]"
6,5.00 to 6.00,"Cc1ccc(C)c(N2CCCc3nc4c(C)c(C)c(-c5cnc(N6CCOCC6)nc5)cn4c32)c1 [Example 41, 4-(5-(1-(2,5-Dimethylphenyl)-6,7-dimethyl-1,2,3,4-tetrahydroimidazo [1,2-a:5,4-b′]dipyridin-8-yl)pyrimidin-2-yl)morpholine]"
